Patent US4946858A, “Novel spirosuccinimides as aldose reductase inhibitors and antihyperglycemic agents” (American Home Products Corporation, priority 1989, dated 1990)
Read-outs that look alike come from different tables or passages of the source.

Tests used:
aldose reductase = target: T1, aldose reductase (Bos taurus, UniProt P16116); assay: In vitro inhibition of aldose reductase (modified Hayman and Kinoshita procedure, enzyme from bovine lens); assay type: biochemical; conditions: read-out: % Inhibition in Vitro
T1 construct: preparation of the enzyme from bovine lens; from tissue; host or cells: bovine lens
Text: In the present case the procedure of Hayman and Kinoshita was modified in that the final chromatography step was omitted in the preparation of the enzyme from bovine lens.

galactosemic rats = assay: Lowering of galactitol (dulcitol) accumulation in tissues of galactosemic rats; assay type: in vivo, rat (Sprague-Dawley); conditions: for % Lowering of dulcitol accumulation In Vivo, % D (diaphragm) / % Lowering of dulcitol accumulation In Vivo, % L (lens) / % Lowering of dulcitol accumulation In Vivo, % N (sciatic nerve): 4 days, vs untreated galactosemic rats
Text: The aldose reductase inhibiting property of the compounds of this invention and the utilization of the compounds in preventing, diminishing and alleviating diabetic complications by lowering polyol accumulation were also demonstrable in experiments using galactosemic rats, see Dvornik et al, Science, 182, 1146 (1973). Such experiments are exemplified hereinbelow after the listing of the following general comments pertaining to these experiments:
(a) Four or more groups of six male rats, 50-70 g, Sprague-Dawley strain, were used. The first group, the control group, was fed a mixture of laboratory chow (rodent Laboratory Chow, Purina) and glucose at 20% (w/w %) concentration. The untreated galactosemic group and the drug-treated groups were fed a similar diet in which galactose is substituted for glucose. The test compound was either admixed to the diet or administered by gavage. In experiments involving compound administration in the diet, the average dose administered was calculated from the actual food intake of the animals in each group. The concentration of galactose in the diet of the treated groups was the same as that for the untreated galactosemic groups.
(b) After four days, the amimals were killed by decapitation. The eyeballs were removed and punctured with a razor blade; the freed lenses were rolled gently on filter paper and weighed. The sciatic nerves were dissected as completely as possible and weighed. Both tissues when frozen can be kept up to two weeks before being analyzed for galactitol.
(c) The polyol determination was performed by a modification of the procedure of M. Kraml and L. Cosyns, Clin. Biochem., 2, 373 (1969). Only two minor reagent changes were made: (a) the rinsing mixture was an aqueous 5% (w/v) trichloroacetic acid solution and (b) the stock solution was prepared by dissolving 25 mg of dulcitol in 100 mL of an aqueous trichloroacetic acid solution. [N.B.: For each experiment the average value found in the tissue from rats fed the glucose diet was subtracted from the individual values found in the corresponding tissue in galactose-fed rats to obtain the amount of polyol accumulated.]
The figures under L, N, and D represent the percentage decrease of galactitol accumulation in the tissues of the lens, sciatic nerve, and diaphragm, respectively, for treated rats as compared to untreated rats.

SMILES	inhibition at 10 µM (aldose reductase; 10^-5 M)	inhibition at 1 µM (aldose reductase; 10^-6 M)	further results
CN1C2(CC(=O)NC2=O)c2ccccc2S1(=O)=O (stereo not drawn) [Example 101, 2,3-Dihydro-2-methylspiro[benzisothiazole-3,3'-pyrrolidine]-2',5'-dione 1,1-Dioxide]	40%	6%	–
CN1C(=O)c2ccc(Cl)cc2C12CC(=O)NC2=O (stereo not drawn) [Example 102, 6-Chloro-2-methylspiro[1H-isoindole-1,3'-pyrrolidine]-2',3,5'(2H)-trione]	91%	80%	% Lowering of dulcitol accumulation In Vivo, % D (diaphragm) (galactosemic rats; 3 mg/kg): 43%; % Lowering of dulcitol accumulation In Vivo, % L (lens) (galactosemic rats; 3 mg/kg): 9%; % Lowering of dulcitol accumulation In Vivo, % N (sciatic nerve) (galactosemic rats; 3 mg/kg, sciatic nerve): 38%; comparison with sorbinil and tolrestat in the sciatic nerve (galactosemic rats; 3 mg/kg/day, sciatic nerve): comparable results to sorbinil at 4 mg/kg/day and tolrestat at 3 mg/kg/day in the sciatic nerve; % Lowering of dulcitol accumulation In Vivo, % D (diaphragm) (galactosemic rats; 25 mg/kg): 81%; % Lowering of dulcitol accumulation In Vivo, % L (lens) (galactosemic rats; 25 mg/kg): 51%; % Lowering of dulcitol accumulation In Vivo, % N (sciatic nerve) (galactosemic rats; 25 mg/kg, sciatic nerve): 84%
O=C1CC2(C(=O)N1)c1ccccc1S(=O)(=O)N2Cc1ccccc1 (stereo not drawn) [Example 103]	45%	5%	–
O=C1CC2(C(=O)N1)c1ccccc1S(=O)(=O)N2Cc1ccc2ccccc2c1Br (stereo not drawn) [Example 112]	59%	25%	–
O=C1CC2(C(=O)N1)c1ccccc1S(=O)(=O)N2Cc1ccc2ccccc2c1 (stereo not drawn) [Example 113]	57%	20%	–
CN1C(=O)c2ccccc2C12CC(=O)NC2=O (stereo not drawn) [Example 117]	–	45%	–
CN1C(=O)c2cc(Cl)ccc2C12CC(=O)NC2=O (stereo not drawn) [Example 120, 5-chloro-2-methylspiro[1H-isoindole-1,3'-pyrrolidine]-2',3,5'(2H)-trione]	88%	72%	% Lowering of dulcitol accumulation In Vivo, % N (sciatic nerve) (galactosemic rats; 3 mg/kg, sciatic nerve): 21%; % Lowering of dulcitol accumulation In Vivo, % D (diaphragm) (galactosemic rats; 81 mg/kg): 80%; % Lowering of dulcitol accumulation In Vivo, % L (lens) (galactosemic rats; 81 mg/kg): 54%; % Lowering of dulcitol accumulation In Vivo, % N (sciatic nerve) (galactosemic rats; 81 mg/kg, sciatic nerve): 77%
O=C1CC2(C(=O)N1)c1cc(Cl)ccc1C(=O)N2Cc1ccc(Br)cc1F (stereo not drawn) [Example 121]	85%	70%	–
CN1C(=O)c2ccc(F)cc2C12CC(=O)NC2=O (stereo not drawn) [Example 123]	–	74%	inhibition at 10 µM (aldose reductase): 93%
CN1C(=O)c2cc3ccccc3cc2C12CC(=O)NC2=O (stereo not drawn) [Example 124, 2-methylspiro[1H-benz[f]isoindole-1,3'-pyrrolidine]-2',3,5'(2H)-trione]	95%	82%	% Lowering of dulcitol accumulation In Vivo, % D (diaphragm) (galactosemic rats; 10 mg/kg): 59%; % Lowering of dulcitol accumulation In Vivo, % L (lens) (galactosemic rats; 10 mg/kg): 14%; % Lowering of dulcitol accumulation In Vivo, % N (sciatic nerve) (galactosemic rats; 10 mg/kg, sciatic nerve): 47%
CN1C(=O)c2cccc(Cl)c2C12CC(=O)NC2=O (stereo not drawn) [Example 125]	88%	57%	% Lowering of dulcitol accumulation In Vivo, % D (diaphragm) (galactosemic rats; 3 mg/kg): 23%; % Lowering of dulcitol accumulation In Vivo, % D (diaphragm) (galactosemic rats; 6 mg/kg): 37%; % Lowering of dulcitol accumulation In Vivo, % L (lens) (galactosemic rats; 6 mg/kg): 7%; % Lowering of dulcitol accumulation In Vivo, % N (sciatic nerve) (galactosemic rats; 6 mg/kg, sciatic nerve): 21%; % Lowering of dulcitol accumulation In Vivo, % D (diaphragm) (galactosemic rats; 10 mg/kg): 47%; % Lowering of dulcitol accumulation In Vivo, % L (lens) (galactosemic rats; 10 mg/kg): 13%; % Lowering of dulcitol accumulation In Vivo, % N (sciatic nerve) (galactosemic rats; 10 mg/kg, sciatic nerve): 32%
CN1C(=O)c2c(Cl)cccc2C12CC(=O)NC2=O (stereo not drawn) [Example 126]	85%	–	inhibition at 1 µM (aldose reductase): 65%
CN1C(=O)c2cc(Br)ccc2C12CC(=O)NC2=O (stereo not drawn) [Example 127]	92%	71%	–
COc1ccc2c(C(=S)N(C)CC(=O)O)cccc2c1C(F)(F)F [Tolrestat, reference compound]	–	–	% Lowering of dulcitol accumulation In Vivo, % D (diaphragm) (galactosemic rats; 3 mg/kg): 80%; % Lowering of dulcitol accumulation In Vivo, % N (sciatic nerve) (galactosemic rats; 3 mg/kg, sciatic nerve): 30%

More lines, main results first:

inhibition at 10 µM (aldose reductase; 10^-5 M)	inhibition at 1 µM (aldose reductase; 10^-6 M)	SMILES	further results
78%	37%	CCN1C(=O)c2ccc(Cl)cc2C12CC(=O)NC2=O (stereo not drawn) [Example 128]	–
83%	56%	COc1ccc2c(c1)C(=O)N(C)C21CC(=O)NC1=O (stereo not drawn) [Example 129]	–
87%	60%	CSc1ccc2c(c1)C(=O)N(C)C21CC(=O)NC1=O (stereo not drawn) [Example 130]	–
49%	12%	CCCN1C(=O)c2cc(Cl)c(Cl)cc2C12CC(=O)NC2=O (stereo not drawn) [Example 131]	–
91%	77%	CN1C(=O)c2ccc([N+](=O)[O-])cc2C12CC(=O)NC2=O (stereo not drawn) [Example 132]	–
89%	61%	Cc1ccc2c(c1)C(=O)N(C)C21CC(=O)NC1=O (stereo not drawn) [Example 133]	–
87%	49%	COC(=O)c1ccc2c(c1)C1(CC(=O)NC1=O)N(C)C2=O (stereo not drawn) [Example 134]	–
84%	59%	Cc1cccc2c1C(=O)N(C)C21CC(=O)NC1=O (stereo not drawn) [Example 135, 2,4-dimethylspiro[1H-isoindole-1,3'-pyrrolidine]-2',3,5'(2H)-trione]	% Lowering of dulcitol accumulation In Vivo, % D (diaphragm) (galactosemic rats; 3 mg/kg): 37%; % Lowering of dulcitol accumulation In Vivo, % D (diaphragm) (galactosemic rats; 6 mg/kg): 57%; % Lowering of dulcitol accumulation In Vivo, % N (sciatic nerve) (galactosemic rats; 6 mg/kg, sciatic nerve): 50%; % Lowering of dulcitol accumulation In Vivo, % D (diaphragm) (galactosemic rats; 10 mg/kg): 69%; % Lowering of dulcitol accumulation In Vivo, % L (lens) (galactosemic rats; 10 mg/kg): 29%; % Lowering of dulcitol accumulation In Vivo, % N (sciatic nerve) (galactosemic rats; 10 mg/kg, sciatic nerve): 63%
90%	81%	CN1C(=O)c2cc(-c3ccccc3)ccc2C12CC(=O)NC2=O (stereo not drawn) [Example 136]	% Lowering of dulcitol accumulation In Vivo, % D (diaphragm) (galactosemic rats; 3 mg/kg): 29%; % Lowering of dulcitol accumulation In Vivo, % D (diaphragm) (galactosemic rats; 6 mg/kg): 43%; % Lowering of dulcitol accumulation In Vivo, % L (lens) (galactosemic rats; 6 mg/kg): 13%; % Lowering of dulcitol accumulation In Vivo, % N (sciatic nerve) (galactosemic rats; 6 mg/kg, sciatic nerve): 27%; % Lowering of dulcitol accumulation In Vivo, % D (diaphragm) (galactosemic rats; 9 mg/kg): 55%; % Lowering of dulcitol accumulation In Vivo, % L (lens) (galactosemic rats; 9 mg/kg): 6%; % Lowering of dulcitol accumulation In Vivo, % N (sciatic nerve) (galactosemic rats; 9 mg/kg, sciatic nerve): 34%
83%	45%	O=C1NC(=O)[C@@]2(CCOc3ccc(F)cc32)N1 [Sorbinil, [(4S)2,3-dihydro-6-fluorospiro[4H1-benzopyran-4,4imidazoli-dine2',5dione, reference compound]	% Lowering of dulcitol accumulation In Vivo, % D (diaphragm) (galactosemic rats; 4 mg/kg): 69%; % Lowering of dulcitol accumulation In Vivo, % L (lens) (galactosemic rats; 4 mg/kg): 46%; % Lowering of dulcitol accumulation In Vivo, % N (sciatic nerve) (galactosemic rats; 4 mg/kg, sciatic nerve): 55%
